Reference: patent US12233081B2, “Hygromycin a compounds and methods of treating spirochete diseases” (priority 2018, dated 2025)

Tested on: gut microbiome
Assay: gut microbiome 16S rRNA sequencing of stool of infected, treated mice
Conditions: for Enterococcaceae change in percent relative abundance: 100 mg/kg
[1] = oral 100 mg/kg every 12 hours for 5 days

Compound: CC1(C)S[C@@H]2[C@H](NC(=O)[C@H](N)c3ccc(O)cc3)C(=O)N2[C@H]1C(=O)O [Amox, amoxicillin]
- Francisellaceae change in percent relative abundance (IP 100 mg/kg every 12 hours for 5 days): 0.001%
- Aerococcaceae change in percent relative abundance [1]: 0.000%
- Anaerolineaceae change in percent relative abundance [1]: 0.000%
- Anaeroplasmataceae change in percent relative abundance [1]: −0.048%
- Anaplasmataceae change in percent relative abundance [1]: 0.000%
- Aspergillaceae change in percent relative abundance [1]: 0.000%
- Asteraceae change in percent relative abundance [1]: 0.003%
- Bacillaceae change in percent relative abundance [1]: 0.002%
- Bacillales change in percent relative abundance [1]: −0.100%
- Bacteroidaceae change in percent relative abundance [1]: −8.426%
- Bifidobacteriaceae change in percent relative abundance [1]: −0.124%
- Brucellaceae change in percent relative abundance [1]: 0.001%
- Camobacteriaceae change in percent relative abundance [1]: −0.002%
- Chitinophagaceae change in percent relative abundance [1]: 0.000%
- Christensenellaceae change in percent relative abundance [1]: 0.000%
- Clostridiaceae change in percent relative abundance [1]: −6.891%
- Clostridiales change in percent relative abundance [1]: −0.099%
- Clostridiales family xi. incertae sedis change in percent relative abundance [1]: −0.027%
- Clostridiales family xiii. incertae sedis change in percent relative abundance [1]: −0.011%
- Coriobacteriaceae change in percent relative abundance [1]: −0.019%
- Corynebacteriaceae change in percent relative abundance [1]: 0.000%
- Cytophagaceae change in percent relative abundance [1]: −0.001%
- Deferribacteraceae change in percent relative abundance [1]: −0.085%
- Defluviitaleaceae change in percent relative abundance [1]: −0.001%
- Desulfobacteraceae change in percent relative abundance [1]: 0.000%
- Enterobacteriaceae change in percent relative abundance [1]: −1.496%
- Erysipelotrichaceae change in percent relative abundance [1]: −2.932%
- Eubacteriaceae change in percent relative abundance [1]: 4.510%
- Fabaceae change in percent relative abundance [1]: 0.001%
- Flavobacteriaceae change in percent relative abundance [1]: 0.000%
- Francisellaceae change in percent relative abundance [1]: −0.001%
- Fusobacteriaceae change in percent relative abundance [1]: 0.000%
- Gammaproteobacteria change in percent relative abundance [1]: −0.027%
- Gloeobacteraceae change in percent relative abundance [1]: −0.013%
- Gracilibacteraceae change in percent relative abundance [1]: −0.105%
- Halomonadaceae change in percent relative abundance [1]: 0.001%
- Hylidae change in percent relative abundance [1]: 0.002%
- Kopriimonadaceae change in percent relative abundance [1]: 0.000%
- Lachnospiraceae change in percent relative abundance [1]: −5.482%
- Lactobacillaceae change in percent relative abundance [1]: −15.023%
- Leuconostocaceae change in percent relative abundance [1]: 0.002%
- Methylobacteriaceae change in percent relative abundance [1]: 0.000%
- Microbacteriaceae change in percent relative abundance [1]: 0.000%
- Mucoraceae change in percent relative abundance [1]: 0.002%
- Nostocaceae change in percent relative abundance [1]: 0.001%
- Onagraceae change in percent relative abundance [1]: 0.000%
- Oscillatoriales change in percent relative abundance [1]: 0.069%
- Oscillospiraceae change in percent relative abundance [1]: −0.005%
- Paenibacillaceae change in percent relative abundance [1]: −0.001%
- Pasteurellaceae change in percent relative abundance [1]: 0.000%
- Pelobacteraceae change in percent relative abundance [1]: 0.000%
- Peptococcaceae change in percent relative abundance [1]: −0.948%
- Peptoniphilaceae change in percent relative abundance [1]: 0.000%
- Peptostreptococcaceae change in percent relative abundance [1]: −0.187%
- Physalacriaceae change in percent relative abundance [1]: 0.000%
- Poaceae change in percent relative abundance [1]: 0.107%
- Polyangiaceae change in percent relative abundance [1]: 0.000%
- Porphyromonadaceae change in percent relative abundance [1]: −19.192%
- Prevotellaceae change in percent relative abundance [1]: −0.240%
- Pseudomonadaceae change in percent relative abundance [1]: 0.000%
- Rhizobiaceae change in percent relative abundance [1]: 0.001%
- Rhodobacteraceae change in percent relative abundance [1]: 0.000%
- Rikenellaceae change in percent relative abundance [1]: −6.166%
- Ruminococcaceae change in percent relative abundance [1]: −1.440%
- Sphingomonadaceae change in percent relative abundance [1]: 0.000%
- Spirochaetaceae change in percent relative abundance [1]: −0.056%
- Spiroplasmataceae change in percent relative abundance [1]: −0.004%
- Staphylococcaceae change in percent relative abundance [1]: 0.000%
- Streptococcaceae change in percent relative abundance [1]: −2.376%
- Thermoanaerobacteraceae change in percent relative abundance [1]: −0.028%
- Veillonellaceae change in percent relative abundance [1]: 0.001%
- Verrucomicrobiaceae change in percent relative abundance [1]: −0.009%
- Xanthomonadaceae change in percent relative abundance [1]: 0.002%
- all other commensal taxa such as Bacteroidaceae and Lactobacillaceae [1]: depleted
- mice with Enterococcaceae blooms [1]: 4/5
- Enterococcaceae change in percent relative abundance [1]: 75.807%
- Enterococcaceae change in percent relative abundance (oral 100 mg/kg every 12 hours for 5 days, listed as amoxicillin): 75.8%
